Columns and labels:
Phytophthora infestans = assay type: in vivo; conditions: tomato, direct protectant foliar spray
Pyricularia oryzae = assay type: in vivo; conditions: rice seedlings, direct therapeutic foliar spray, 600 ppm, 4-5 days
Botrytis cinerea = experiment: Direct protectant activity against broad bean grey mould (BCB); assay type: in vivo; conditions: direct protectant foliar spray, 600 ppm, 4 days
How it was run: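 Protectant foliar test: lesion coverage assessed 4 days after inoculation and rated relative to untreated or diluent-sprayed plants. Compound applied at 600 ppm to cv The Sutton leaves 24 h before 10^6 conidia/ml suspension; incubation at 22 °C in high humidity.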

Venturia inaequalis = experiment: Activity against apple scab in-vitro (VII); assay type: cell-based; conditions: 10 ppm, 10 days, 20° C., mycelial growth
How it was run: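 V. inaequalis propagules (5×10^4/ml, malt agar-grown) were exposed in half-strength PDB to 10 ppm final test compound delivered in acetone. Growth was scored after incubation for 10 days at 20° C, as a rating relative to untreated or diluent-sprayed controls.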

[1] = system: Erysiphe graminis f.sp. hordei; experiment: Activity against barley powdery mildew, direct therapeutic (EGT); assay type: in vivo; conditions: direct therapeutic foliar spray, 600 ppm, up to 7 days
How it was run: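 A curative spray at 600 ppm was applied to single-leaf Golden Promise barley inoculated with powdery mildew conidia the previous day. After up to 7 days at 18 °C and 40% humidity, disease control was rated from percent leaf area sporulating relative to untreated or diluent-sprayed controls.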

Alternaria solani = experiment: Activity against tomato early blight (AS); assay type: in vivo; conditions: Table VI; tomato seedlings, contact prophylactic foliar spray, 4 days
How it was run: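 Plants were challenged with A. solani conidia (10^4 spores/ml) 24 h after a protective foliar spray of compound in 50:50 acetone/water plus 0.04% Tween 20. Held humid at 21° C for 4 days, then percent leaf area with lesions was scored as a rating relative to controls.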

[2] = system: Pseudocercosporella herpotrichoides; experiment: Activity against wheat eyespot in-vitro (PHI); assay type: cell-based; conditions: 10 ppm, 10 days, 20° C., mycelial growth
How it was run: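 Mycelial growth was scored after 10 days at 20 °C against untreated or diluent controls. The broth was half-strength potato dextrose, holding 10 ppm test compound (from acetone) and 5×10^4 fragments/ml of the eyespot fungus.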

Rhizoctonia solani = experiment: Activity against Rhizoctonia in-vitro (RSI); assay type: cell-based; conditions: 10 ppm, 10 days, 20° C., mycelial growth
How it was run: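 Compound at a final 10 ppm (acetone vehicle) in half-strength PDB, inoculated with 5×10^4 fragments/ml of shaken-culture R. solani mycelium. After incubation at 20° C for 10 days, growth scored as a rating versus untreated or diluent-treated controls.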

Plasmopara viticola = experiment: Antisporulant activity against vine downy mildew (PVA); assay type: in vivo; conditions: vine leaves, antisporulant foliar spray, 600 ppm, 750 l/ha
How it was run: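 Cabernet Sauvignon vines (~8 cm) inoculated on lower leaf surfaces with 5×10^4 zoosporangia/ml, held 24 h at 21° C high humidity then 24 h glasshouse. Infected leaves sprayed underside with 600 ppm compound in 1:1 water/acetone, 0.04% Tween 20, 750 l/ha; 96 h glasshouse, 24 h humidity. Sporulating leaf area rated versus control.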

Leptosphaeria nodorum = experiment: Activity against wheat leafspot (LN); assay type: in vivo; conditions: direct therapeutic foliar spray, 600 ppm, 6-8 days
How it was run: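 Therapeutic foliar spray: compound at 600 ppm applied to single-leaf wheat (cv Norman) 24 h after inoculation with 1.5×10^6 conidia/ml. Disease control scored after 6-8 days at 22° C and 70% humidity as lesions per leaf versus untreated or diluent-sprayed controls.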

[3] = system: Erysiphe graminis f.sp. hordei; experiment: Direct protectant activity against barley powdery mildew (EGP); assay type: in vivo; conditions: direct protectant foliar spray, 8 days
How it was run: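 Rating reflects percentage of leaf area with sporulation compared with untreated or diluent-sprayed controls. Protectant spray was applied to single-leaf barley (cv Golden Promise) 24 h before conidia inoculation. Plants were kept at 18 °C and 40% RH throughout, with 8 days of disease development.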

Compound	disease control rating PIP (Phytophthora infestans)	disease control rating PO (Pyricularia oryzae)	disease control rating BCB (Botrytis cinerea)	disease control rating VII (Venturia inaequalis)	disease control rating EGT [1]	disease control rating AS (Alternaria solani)	disease control rating PHI [2]	disease control rating RSI (Rhizoctonia solani)	disease control rating PVA (Plasmopara viticola)	disease control rating LN (Leptosphaeria nodorum)	disease control rating EGP [3]
CC(C)CCCC(C)NC1COC2(CCC(C(C)(C)C)CC2)C1 (stereo not drawn) [Compound 107]	2 (greater than 80% disease control)	0 (less than 50% disease control)	0 (less than 50% disease control)	1 (about 50-80% disease control)	2 (greater than 80% disease control)	0 (less than 50% disease control)	1 (about 50-80% disease control)	1 (about 50-80% disease control)	0 (less than 50% disease control)	0 (less than 50% disease control)	2 (greater than 80% disease control)
CC(C)(C)C1CCC2(CC1)CC(NC1CCC3CCCCC3C1)CO2 (stereo not drawn) [Compound 138]	2 (greater than 80% disease control)	0 (less than 50% disease control)	0 (less than 50% disease control)	0 (less than 50% disease control)	0 (less than 50% disease control)	0 (less than 50% disease control)	0 (less than 50% disease control)	0 (less than 50% disease control)	0 (less than 50% disease control)	0 (less than 50% disease control)	0 (less than 50% disease control)
CC(C)CN(C)C1COC2(CCC(C(C)(C)C)CC2)C1 (stereo not drawn) [Compound 121]	0 (less than 50% disease control)	0 (less than 50% disease control)	0 (less than 50% disease control)	0 (less than 50% disease control)	2 (greater than 80% disease control)	0 (less than 50% disease control)	0 (less than 50% disease control)	0 (less than 50% disease control)	0 (less than 50% disease control)	0 (less than 50% disease control)	2 (greater than 80% disease control)
CC(C)(C)NC1COC2(CCC(C(C)(C)C)CC2)C1 (stereo not drawn) [Compound 81]	2 (greater than 80% disease control)	0 (less than 50% disease control)	2 (greater than 80% disease control)	0 (less than 50% disease control)	2 (greater than 80% disease control)	0 (less than 50% disease control)	0 (less than 50% disease control)	0 (less than 50% disease control)	0 (less than 50% disease control)	0 (less than 50% disease control)	2 (greater than 80% disease control)
Clc1ccc(CNC2COC3(CCCCC3)C2)cc1 (stereo not drawn) [Compound 34]	0 (less than 50% disease control)	0 (less than 50% disease control)	0 (less than 50% disease control)	0 (less than 50% disease control)	2 (greater than 80% disease control)	0 (less than 50% disease control)	0 (less than 50% disease control)	0 (less than 50% disease control)	0 (less than 50% disease control)	0 (less than 50% disease control)	2 (greater than 80% disease control)
CCCCCCCCCCCCCCNC1COC2(CCC(C(C)(C)C)CC2)C1 (stereo not drawn) [Compound 44]	0 (less than 50% disease control)	0 (less than 50% disease control)	0 (less than 50% disease control)	0 (less than 50% disease control)	2 (greater than 80% disease control)	0 (less than 50% disease control)	0 (less than 50% disease control)	0 (less than 50% disease control)	0 (less than 50% disease control)	0 (less than 50% disease control)	2 (greater than 80% disease control)
CCCCCC(C)NC1COC2(CCC(C(C)(C)C)CC2)C1 (stereo not drawn) [Compound 101]	0 (less than 50% disease control)	0 (less than 50% disease control)	2 (greater than 80% disease control)	2 (greater than 80% disease control)	2 (greater than 80% disease control)	0 (less than 50% disease control)	1 (about 50-80% disease control)	0 (less than 50% disease control)	0 (less than 50% disease control)	0 (less than 50% disease control)	2 (greater than 80% disease control)
c1ccc(C2CCC3(CC2)CC(NC2CCCCC2)CO3)cc1 (stereo not drawn) [Compound 56]	0 (less than 50% disease control)	0 (less than 50% disease control)	2 (greater than 80% disease control)	1 (about 50-80% disease control)	2 (greater than 80% disease control)	0 (less than 50% disease control)	0 (less than 50% disease control)	0 (less than 50% disease control)	0 (less than 50% disease control)	2 (greater than 80% disease control)	2 (greater than 80% disease control)
CCCCN(Cc1cccnc1)C1COC2(CCC(C(C)(C)C)CC2)C1 (stereo not drawn) [Compound 48]	0 (less than 50% disease control)	0 (less than 50% disease control)	0 (less than 50% disease control)	1 (about 50-80% disease control)	2 (greater than 80% disease control)	2 (greater than 80% disease control)	0 (less than 50% disease control)	0 (less than 50% disease control)	0 (less than 50% disease control)	0 (less than 50% disease control)	2 (greater than 80% disease control)

Source: patent US5591741A, “Fungicidal spiroheterocyclic derivatives” (American Cyanamid Company, priority 1993, dated 1997)
